According to patent US20110301370A1, “METHOD FOR PREPARING OREGANIC ACID” (CONSEJO SUPERIOR DE INVESTIGACIONES CIENTÍFICAS, priority 2008, published 2011):

## O=C(O)C/C(C(=O)O)=C(\CCCCCCCCCCCCCCCCOS(=O)(=O)O)C(=O)O [1-Z, (Z)-3,4-dicarboxy-20-sulfooxy-3-eicosenoic acid]
  melting point: 63 to 65 °C
